Test results from EP3473709B1, “DNA VECTOR CONTAINING A GENE ENCODING AN EQUINE BUTYRYLCHOLINESTERASE, FOR TRANSFORMATION AND INTEGRATION INTO LEISHMANIA TARENTOLAE CHROMOSOME” (priority 2017, dated 2019).

Legend:
[1] = target: recombinant equine BChE (butyrylcholinesterase), truncated version devoid of the tetramerization domain, GA-BChE-His, Seq.2, expressed in Leishmania tarentolae (Equus caballus, UniProt Q9N1N9); assay: Ellman's method enzymatic activity test (hydrolysis of S-butyrylthiocholine iodide, DTNB, absorbance at 412 nm)
CCCC(=O)SCC[N+](C)(C)C = assay: purified protein, by the assay type; details: pH 7.4; 25.0 °C

Row | Compound | BChE activity in the presence of different concentrations of methylene blue [1] | Km (CCCC(=O)SCC[N+](C)(C)C)
1 | CN(C)c1ccc2nc3ccc(=[N+](C)C)cc-3sc2c1 [methylene blue] | inhibited | 
2 | recombinant equine BChE (butyrylcholinesterase), truncated version devoid of the tetramerization domain, GA-BChE-His, Seq.2, expressed in Leishmania tarentolae T7-TR (Equus caballus) |  | 20 µM
